Experimental data taken from publication PMC9270327 (Communications Biology, 2022).
Where two headings read alike, the source gives them in different places.

Experiments:
[1] = biological target: T1, recombinant human thrombin (Homo sapiens, UniProt P00734); experiment: Enzyme inhibition assay with purified thrombin (Ki, dose-response); type: biochemical; settings: for thrombin activity, Mean (Fig. 2c): normalized, 0 nM = 100
T1 construct: purchased R&D Systems (Minneapolis, MN, USA)
Description: Recombinant human TMPRSS2 was purchased from Creative BioMart (New York, USA) or LSBio (Seattle, USA), factor Xa was obtained from Bio-Techne GmbH (Wiesbaden, Germany). Recombinant human thrombin and matriptase protein were purchased from R&D Systems (Minneapolis, MN, USA).

TMPRSS2 = TMPRSS2 (Homo sapiens, UniProt O15393); experiment: Plasma stability: residual TMPRSS2 inhibition after incubation in human plasma
Description: The activity of the compounds against the recombinant human enzymes was determined in enzyme inhibition assays. […] The measurements were performed on a Tecan infinite® M1000 and the fluorescence intensity was measured by exciting the AMC fluorophore at 380 nm wavelength and recording emission at 460 nm wavelength. […] Fluorescence intensities and absorption were measured every 2 min for 2 h or as endpoint after 2 h. […] To determine the IC50 values, the concentration-response data were plotted with the program GraphPad prism version 8.4.2 (San Diego, California) and a nonlinear regression fit with the equation [Inhibitor] vs. normalized response was applied. The inhibitory constant Ki was calculated from the IC50 values using the Cheng–Prusoff equation (Ki = IC50/[S]/KM) for competitive reversible inhibitors[66].
The stability of the inhibitors was measured according to a modified procedure from ref. [67]. […] At indicated timepoints, 100 µL samples were taken and mixed with 200 µL of ethanol to precipitate proteins. […] The supernatant was aspirated and analyzed using analytical HPLC. The residual inhibitory constants Ki after incubation was assessed by mixing serial dilutions of the inhibitor with recombinant TMPRSS2 as described above.
Shown are the means ± SD of n=1 experiment performed in triplicates.

[2] = tested on: lentiviral pseudoparticles carrying SARS-CoV-2 Wuhan-Hu-1 spike, Caco-2 cells; type: cell-based

TMPRSS2, sequence (O15393 whole entry): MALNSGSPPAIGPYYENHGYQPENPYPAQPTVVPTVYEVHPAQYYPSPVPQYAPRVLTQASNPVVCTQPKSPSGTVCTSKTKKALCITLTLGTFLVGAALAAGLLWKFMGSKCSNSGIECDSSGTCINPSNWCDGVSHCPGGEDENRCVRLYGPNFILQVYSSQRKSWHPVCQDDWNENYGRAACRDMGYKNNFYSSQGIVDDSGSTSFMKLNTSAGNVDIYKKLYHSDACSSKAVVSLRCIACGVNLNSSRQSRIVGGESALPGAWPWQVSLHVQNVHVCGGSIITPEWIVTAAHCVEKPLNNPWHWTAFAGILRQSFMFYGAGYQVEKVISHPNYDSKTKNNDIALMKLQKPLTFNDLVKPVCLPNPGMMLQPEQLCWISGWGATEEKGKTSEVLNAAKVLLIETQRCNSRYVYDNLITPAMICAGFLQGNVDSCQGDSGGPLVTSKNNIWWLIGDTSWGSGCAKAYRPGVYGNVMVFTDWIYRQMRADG

ace-Arg-Pro-Arg-kbt [Compound 2]
thrombin activity, Mean (Fig. 2c) ([1]; 2 nM): 99.4379
thrombin activity, Mean (Fig. 2c) ([1]; 20 nM): 100.358
thrombin activity, Mean (Fig. 2c) ([1]; 200 nM): 86.605
thrombin activity, Mean (Fig. 2c) ([1]; 10000 nM): 11.4518
thrombin activity, Mean (Fig. 2c) ([1]; 100000 nM): -13.8043
Ki ([1]; 30 min preincubation, substrate D-Phe-Homopro-Arg-pNA): 0.599 µM
Selectivity index Thrombin ([1]; quotient Ki thrombin / Ki TMPRSS2): 158
TMPRSS2 activity, Mean (0 nM = 100) (TMPRSS2; inhibitor 0.0167 nM, 0 min in plasma): 108.191
TMPRSS2 activity, Mean (0 nM = 100) (TMPRSS2; inhibitor 0.0167 nM, 30 min in plasma): 105.387
TMPRSS2 activity, Mean (0 nM = 100) (TMPRSS2; inhibitor 0.0167 nM, 60 min in plasma): 97.3483
TMPRSS2 activity, Mean (0 nM = 100) (TMPRSS2; inhibitor 0.0167 nM, 120 min in plasma): 100.611
TMPRSS2 activity, Mean (0 nM = 100) (TMPRSS2; inhibitor 0.0167 nM, 24 h in plasma): 95.898
TMPRSS2 activity, Mean (0 nM = 100) (TMPRSS2; inhibitor 0.0167 nM, 10 d in plasma): 98.4437
TMPRSS2 activity, Mean (0 nM = 100) (TMPRSS2; inhibitor 0.0167 nM, positive ctrl): 103.005
TMPRSS2 activity, Mean (0 nM = 100) (TMPRSS2; inhibitor 0.167 nM, 0 min in plasma): 105.131
TMPRSS2 activity, Mean (0 nM = 100) (TMPRSS2; inhibitor 0.167 nM, 30 min in plasma): 104.481
TMPRSS2 activity, Mean (0 nM = 100) (TMPRSS2; inhibitor 0.167 nM, 60 min in plasma): 96.8072
TMPRSS2 activity, Mean (0 nM = 100) (TMPRSS2; inhibitor 0.167 nM, 120 min in plasma): 98.0518
TMPRSS2 activity, Mean (0 nM = 100) (TMPRSS2; inhibitor 0.167 nM, 24 h in plasma): 93.482
TMPRSS2 activity, Mean (0 nM = 100) (TMPRSS2; inhibitor 0.167 nM, 10 d in plasma): 101.036
TMPRSS2 activity, Mean (0 nM = 100) (TMPRSS2; inhibitor 0.167 nM, positive ctrl): 100.219
TMPRSS2 activity, Mean (0 nM = 100) (TMPRSS2; inhibitor 1.665 nM, 0 min in plasma): 102.769
TMPRSS2 activity, Mean (0 nM = 100) (TMPRSS2; inhibitor 1.665 nM, 30 min in plasma): 100.449
TMPRSS2 activity, Mean (0 nM = 100) (TMPRSS2; inhibitor 1.665 nM, 60 min in plasma): 96.1849
TMPRSS2 activity, Mean (0 nM = 100) (TMPRSS2; inhibitor 1.665 nM, 120 min in plasma): 100.213
TMPRSS2 activity, Mean (0 nM = 100) (TMPRSS2; inhibitor 1.665 nM, 24 h in plasma): 98.9115
TMPRSS2 activity, Mean (0 nM = 100) (TMPRSS2; inhibitor 1.665 nM, 10 d in plasma): 97.0442
TMPRSS2 activity, Mean (0 nM = 100) (TMPRSS2; inhibitor 1.665 nM, positive ctrl): 88.8492
TMPRSS2 activity, Mean (0 nM = 100) (TMPRSS2; inhibitor 16.65 nM, 0 min in plasma): 86.0968
TMPRSS2 activity, Mean (0 nM = 100) (TMPRSS2; inhibitor 16.65 nM, 30 min in plasma): 100.379
TMPRSS2 activity, Mean (0 nM = 100) (TMPRSS2; inhibitor 16.65 nM, 60 min in plasma): 78.8625
TMPRSS2 activity, Mean (0 nM = 100) (TMPRSS2; inhibitor 16.65 nM, 120 min in plasma): 82.8569
TMPRSS2 activity, Mean (0 nM = 100) (TMPRSS2; inhibitor 16.65 nM, 24 h in plasma): 83.5789
TMPRSS2 activity, Mean (0 nM = 100) (TMPRSS2; inhibitor 16.65 nM, 10 d in plasma): 88.0057
TMPRSS2 activity, Mean (0 nM = 100) (TMPRSS2; inhibitor 16.65 nM, positive ctrl): 53.0338
TMPRSS2 activity, Mean (0 nM = 100) (TMPRSS2; inhibitor 166.5 nM, 0 min in plasma): 23.84
TMPRSS2 activity, Mean (0 nM = 100) (TMPRSS2; inhibitor 166.5 nM, 30 min in plasma): 25.2709
TMPRSS2 activity, Mean (0 nM = 100) (TMPRSS2; inhibitor 166.5 nM, 60 min in plasma): 26.798
TMPRSS2 activity, Mean (0 nM = 100) (TMPRSS2; inhibitor 166.5 nM, 120 min in plasma): 22.618
TMPRSS2 activity, Mean (0 nM = 100) (TMPRSS2; inhibitor 166.5 nM, 24 h in plasma): 21.6315
TMPRSS2 activity, Mean (0 nM = 100) (TMPRSS2; inhibitor 166.5 nM, 10 d in plasma): 39.6688
TMPRSS2 activity, Mean (0 nM = 100) (TMPRSS2; inhibitor 166.5 nM, positive ctrl): 13.9877
TMPRSS2 activity, Mean (0 nM = 100) (TMPRSS2; inhibitor 1665 nM, 0 min in plasma): 0.5738
TMPRSS2 activity, Mean (0 nM = 100) (TMPRSS2; inhibitor 1665 nM, 30 min in plasma): 7.5387
TMPRSS2 activity, Mean (0 nM = 100) (TMPRSS2; inhibitor 1665 nM, 60 min in plasma): 0.2056
TMPRSS2 activity, Mean (0 nM = 100) (TMPRSS2; inhibitor 1665 nM, 120 min in plasma): 7.6223
TMPRSS2 activity, Mean (0 nM = 100) (TMPRSS2; inhibitor 1665 nM, 24 h in plasma): 2.774
TMPRSS2 activity, Mean (0 nM = 100) (TMPRSS2; inhibitor 1665 nM, 10 d in plasma): 10.1282
TMPRSS2 activity, Mean (0 nM = 100) (TMPRSS2; inhibitor 1665 nM, positive ctrl): 12.6313
SARS-CoV-2 spike driven entry, Mean (0 nM = 100) [2]: 93.4665
IC50 ([2]; Caco-2 cells, luciferase 2 days post transduction, read-out: IC50 pseudotyped lentivirus Wuhan-Hu-1): 1.62 µM
SARS-CoV-2 spike driven entry, Mean (0 nM = 100) ([2]; Fig. 5a, compound 160 nM, […]): 93.5815
SARS-CoV-2 spike driven entry, Mean (0 nM = 100) ([2]; Fig. 5a, compound 800 nM, […]): 73.183
SARS-CoV-2 spike driven entry, Mean (0 nM = 100) ([2]; Fig. 5a, compound 4000 nM, […]): 22.027
SARS-CoV-2 spike driven entry, Mean (0 nM = 100) ([2]; Fig. 5a, compound 20000 nM, […]): 3.879
SARS-CoV-2 spike driven entry, Mean (0 nM = 100) ([2]; Fig. 5a, compound 100000 nM, […]): 2.5725
